The METLIN SMRT retention time set (Domingo-Almenara et al. 2019)

Test: gradient 5% acetonitrile 3 min, to 50% in 2 min, to 85% in 15 min, held 3 min, 100 µL/min
Details: column: Zorbax Extend-C18 2.1 x 50 mm; eluents: water / acetonitrile, 0.1% formic acid
Outline: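 In both positive and negative ionization mode, a quadrupole time-of-flight mass spectrometer coupled to HPLC analyzed pure standards run in mixtures of ~100 molecules. The Zorbax Extend-C18 column (2.1 × 50 mm, 1.8 μm) was operated at 100 μL/min with water and acetonitrile, each containing 0.1% formic acid. The dead volume was 40 μL and the dwell volume 900 μL. Retention time came from adduct peaks that were computationally picked and individually inspected by hand.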

Structure (SMILES) | RP-LC retention time [s]
CCCN(CCC)CCCNC(=O)C1=C(C)C(=O)OC12CCN(Cc1ccccc1)CC2 | 558
Cc1cc(C)cc(NC(=O)N2CCCC(Cn3c(C)nc4cccnc43)C2)c1 (stereo not drawn) | 671
CCc1nn2c(CNS(=O)(=O)Cc3cccc(Cl)c3)c(-c3ccccc3)nc2s1 | 1010
O=C(c1ccc2ccnc(N3CCN(c4ccc(F)cc4)CC3)c2c1)N1CCCCCC1 | 816
CC(C)c1noc(-c2ccn3c(CC(=O)NC(C)c4ccc(F)cc4)nnc3c2)n1 (stereo not drawn) | 792
O=C(Nc1cc(-c2ccsc2)no1)c1ccc(F)c(F)c1 | 982
CCN1CCCn2cc(S(=O)(=O)NCc3ccccc3C(F)(F)F)cc2C1=O | 792
Cc1ccc(-n2ccc(=O)c(-c3nc(-c4ccccc4Br)no3)n2)cc1C | 1020
Cc1cc2[nH]c(C(=O)Nc3ccc(F)c(F)c3F)c(CN(C)C)c2s1 | 688
O=C(c1ccncc1)N1CC(C(=O)N2CCSCC2)C2(CCCCC2)C1 (stereo not drawn) | 620
Cc1sc2ncnc(N3CCCC(C)C3)c2c1C(=O)Nc1ccc(C(F)(F)F)cc1 (stereo not drawn) | 1340
COCCN1C(=O)CCc2cc(NC(=O)c3ccco3)ccc21 | 654
CCCn1cc(C(=O)NCC(=O)OCC)c(S(=O)(=O)N2CCN(c3ccc(Cl)cc3)CC2)n1 | 1040
Cc1ccc(-n2nc(C(=O)N3CCN(c4ccccn4)CC3)c3ncn(C)c(=O)c32)cc1 | 608
COc1cc(C(=O)Nc2nc(-c3ccc4c(c3)NC(=O)CO4)cs2)cc(OC)c1OC | 824
COC(=O)C1C(=O)C2=C(CC1C)NC(C)=C(C(=O)OC(C)C)C2c1ccccc1F (stereo not drawn) | 954
O=C(Nc1cccn2cnnc12)c1ccccn1 | 652
CCC(=O)N1CCc2cc(N3CC(C(=O)Nc4ccccc4)CC3=O)ccc21 (stereo not drawn) | 720
Cn1c(CCc2cccc(NC(=O)C3CCN(S(=O)(=O)N4CCCC4)CC3)c2)nc2ccccc21 | 672
Cc1cccc(NC(=O)Cn2c(=O)n(-c3ccccc3)c3ncccc32)c1 | 851
CCCCn1cc(S(=O)(=O)NCc2cccc(F)c2)c2cccnc21 | 964
CN(C)[C@@H]1CN(C(=O)c2ccc(Br)cc2F)C[C@H]1CO | 581

Structure (SMILES) | RP-LC retention time [s]
COc1ccccc1NC(=O)N1CCCC1c1nncn1C1CCCC1 (stereo not drawn) | 697
O=C(NCc1nn(Cc2ccccc2)c2ccccc12)c1ccoc1 | 870
Cc1cc(C)cc(NC(=O)c2cc(C)n3nc(C)cc3n2)c1 | 1160
CCCc1noc(-c2cccnc2N2CCCN(Cc3cccc(F)c3)CC2)n1 | 722
COc1ccc(NC(=O)c2cnc3c(c2)c(=O)n(C)c(=O)n3-c2ccc(C)cc2)c(OC)c1 | 913
COc1ccc(/C=C/C(=O)Nc2ccccc2C(=O)O)cc1OC | 927
CCOC(=O)c1[nH]c(C)c(CCC(=O)NCCN2CCN(C)CC2)c1C | 547
CCN1CCN(CCCNC(=O)C2CCN(c3nc4cccnc4n(CC)c3=O)CC2)CC1 | 580
Cc1ccc(NC(=O)Nc2ccc3nc(N4CCN(C)CC4)cc(C)c3c2)cc1F | 614
CCN(CC)S(=O)(=O)c1ccc(Cl)c(-c2nnc(-c3cccc(C)c3)o2)c1 | 1170
COc1ccc(OC)c(S(=O)(=O)N2CCC3(C2)C(=O)N(C)c2ccccc23)c1 (stereo not drawn) | 853
COc1ccccc1-c1noc(C2CCCN2C(=O)Nc2ccccc2C(F)(F)F)n1 (stereo not drawn) | 933
CC(C)(C)c1ccc(S(=O)(=O)N2CCC(C(=O)NCc3csc(-c4ccccc4)n3)CC2)cc1 | 1130
O=C(c1ccccc1Sc1nccnc1Oc1ccccc1)N1CCOCC1 | 859
CCc1nn2c(CNC(=O)c3ccc(C)c(F)c3)c(-c3ccccc3)nc2s1 | 985
CCOc1ccc(NS(=O)(=O)c2cc(C(=O)N3CCN(c4ccc(F)cc4)CC3)n[nH]2)cc1 | 876
COc1ccc(-c2cc3n(n2)CCCN(C(=O)NCC2CCCO2)C3)cc1 (stereo not drawn) | 681
C=CCN(CC=C)S(=O)(=O)c1ccc2nc(NC(=O)Cc3cccs3)sc2c1 | 936
O=C(Nc1ccc2c(c1)CN(S(=O)(=O)Cc1ccccc1)CCO2)C1CC1 | 844
O=C(CN1C(=O)CCC1=O)NCC(O)C1CCCCC1 (stereo not drawn) | 597
Cc1ccc(N2CN(CC#N)S(=O)(=O)c3cccnc32)cc1 | 877
COc1ccc(NC(=O)c2c(O)c3cccnc3n(-c3cccc(F)c3)c2=O)cc1F | 1210

Structure (SMILES) | RP-LC retention time [s]
Cc1nnc(-c2ccc3ccn(CC(=O)Nc4ccc(F)c(F)c4)c3c2)o1 | 829
CCCN(CCC)C(=O)Cn1c(CO)nc2ccccc21 | 623
Cn1cccc1C(=O)N1CCCCC1c1nncn1Cc1ccccc1 (stereo not drawn) | 745
CC(C)N1C[C@H](Oc2ccccc2)[C@@H]1C1CCN(S(=O)(=O)c2cccnc2)CC1 | 669
Fc1ccc(-c2ccc(CNCC3CCCO3)o2)cc1 (stereo not drawn) | 649
Nc1cccc(C(=O)CC2(O)C(=O)Nc3ccc(Cl)cc32)c1 (stereo not drawn) | 627
COc1cccc(-c2nn3c(CSc4ccccc4)nnc3s2)c1 | 993
CC(NC(=O)C1CCN(S(=O)(=O)c2ccc(C#N)cc2)CC1)C(=O)N1CCCc2ccccc21 (stereo not drawn) | 690
Cc1cnc(C)n1C1CCN(C(=O)c2cccn2C)C1 (stereo not drawn) | 580
CCC1Oc2ccc(S(=O)(=O)N3CCC(C(=O)Nc4ccccc4)CC3)cc2NC1=O (stereo not drawn) | 794
Cc1cc(NC(=O)C2CCN(C(=O)c3snnc3C)CC2)no1 | 618
NC(=O)c1ccc(NC(=O)CSC2=Nc3ccccc3N=C(c3ccccn3)C2)cc1 | 738
CCc1noc(-c2cccnc2N2CCCN(Cc3cccc(C)c3)CC2)n1 | 690
CCc1ccc(C2=C(C)C(N3CCC(NC(=O)NCCCOC)CC3)=NS2(=O)=O)cc1 | 739
COc1ccc(-c2c(C)noc2NC(C)=O)cc1S(=O)(=O)Nc1ccc(F)c(F)c1 | 748
COc1ccccc1NC(=O)C(=O)c1ccc[nH]1 | 908
Cc1cccn2cc(-c3cccc(S(=O)(=O)N(C)C)c3)nc12 | 620
COc1ccc(NC(=O)N2CCN(C3=CC4=NC(C)CN4C=N3)CC2)c(C)c1 (stereo not drawn) | 649
O=C(Cn1cccc1-c1nnc(-c2ccccc2)o1)NCc1cccs1 | 854
Cn1c(=O)sc2cc(S(=O)(=O)N3CCC(C(=O)NCCC4=CCCCC4)CC3)ccc21 | 911
COCCNc1c(-c2ccc(F)cc2)nc2sc(C(=O)N(C)C)c(C)n12 | 702
Cc1noc(-c2ccnc(-n3cnc(C(=O)NC4CCCCC4)c3)c2)n1 | 776

Structure (SMILES) | RP-LC retention time [s]
CCSc1nc2ccc(NS(=O)(=O)c3cc(C)ccc3C)cc2s1 | 1070
O=C1CCCN1CCCN1C(=O)[C@H]2CN(Cc3ccccc3OC(F)(F)F)C[C@H]2C1=O | 687
COc1ccc(NC(=O)Cc2nnc(-c3ccc4ncccc4c3)o2)cc1OC | 655
Cc1cc(NC(=O)c2ccc(-c3cncnc3)nc2)ccc1Br | 859
CCc1nc2cc(N3CCCC(C(=O)NCc4ccco4)C3)cnc2nc1CC (stereo not drawn) | 673
Cc1ccn2cc(C(=O)N3CCN(C4CCCCC4)CC3)nc2c1 | 566
CCN(Cc1ccc(C)cc1)Cc1cc(=O)n2cc(Cl)ccc2n1 | 652
COc1ccc2c(C)c(CCC(=O)N[C@H](C(=O)O)c3ccccc3)c(=O)oc2c1 | 744
COc1ccccc1CCC(=O)N1C[C@@H]2C[C@H](NS(C)(=O)=O)[C@H]1C2 | 678
COc1cc(C2Oc3ccc(C4Oc5cc(O)cc(O)c5C(=O)C4O)cc3OC2CO)ccc1O (stereo not drawn) | 685
Cc1csc(NC(=O)Cn2ccc3ccc(-c4nnc(C)o4)cc32)n1 | 716
O=C(c1nc(-c2ccnc(N3CCCCC3)c2)no1)N1CCC2(CC1)OCCO2 | 673
O=C(Cn1nc2nc(N3CCCC3)ccn2c1=O)Nc1ccc(F)c(Cl)c1 | 708
CCc1nn2c(CNC(=O)c3ccccn3)c(-c3ccccc3)nc2s1 | 891
COc1cc(NC(=O)N2CCCC2c2nc(-c3ccccc3OC)no2)cc(OC)c1 (stereo not drawn) | 849
CCCNC(=O)c1cc2n(n1)CC(C)(C(=O)NCc1ccc(F)cc1)N(C)C2=O (stereo not drawn) | 688
CCC(C)NC(=O)CCCn1c(=O)c2cccn2c2ccc(Br)cc21 (stereo not drawn) | 894
CCCN1CCN(C(=O)c2ccc3ccnc(N4CCN(c5ccc(Cl)cc5)CC4)c3c2)CC1 | 643
Cc1ccc(-c2ncccc2CNS(=O)(=O)c2ccc(F)c(C)c2)cc1 | 743
O=C(c1nc(-c2ccnc(N3CCCCC3)c2)no1)N1CCN(C2CCCCC2)CC1 | 609
Nc1nccc(Oc2ccc(NC(=O)c3c[nH]cc(-c4ccc(F)cc4)c3=O)cc2F)c1Cl | 751
COc1cccc(NC(=O)CSc2cc(N3CCN(c4ccccc4F)CC3)ncn2)c1 | 1060
